Measured values published in the supplement of paper PMC10307832.

Columns and labels:
Experiment in all cases: relative viability (nuclei count vs DMSO), 5 days (fraction); higher = more cells survive
[1] = compound: COc1cc([C@@H]2c3cc4c(cc3[C@@H](O[C@@H]3O[C@@H]5CO[C@@H](C)O[C@H]5[C@H](O)[C@H]3O)[C@H]3COC(=O)[C@H]23)OCO4)cc(OC)c1O [Etoposide] + CC(C)C[C@H](NC(=O)[C@H](Cc1ccccc1)NC(=O)c1cnccn1)B(O)O [Bortezomib] (partner 0.002 µM)
Method in brief: (§1)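 Relative viability divides the nuclei count in treated wells by that in vehicle wells. Lung cancer cell lines were seeded in 1536-well plates, dosed by pin tool the next day, and fixed and stained after 5 days in one step with final 0.05% Triton X-100, 1% formaldehyde and 1 ug/ml Hoechst. Dosing was a single drug or a fixed anchor-drug dose plus five library-drug doses (not always all listed) in √10 steps, and values are medians of duplicate plates imaged at 4×.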

[2] = compound: COc1cc([C@@H]2c3cc4c(cc3[C@@H](O[C@@H]3O[C@@H]5CO[C@@H](C)O[C@H]5[C@H](O)[C@H]3O)[C@H]3COC(=O)[C@H]23)OCO4)cc(OC)c1O [Etoposide] + C[C@@H](Oc1cc(-c2cnn(C3CCNCC3)c2)cnc1N)c1c(Cl)ccc(F)c1Cl [Crizotinib] (partner 1 µM)
Method in brief: as §1

[3] = compound: CC1=C(N=C(N=C1N)[C@H](CC(=O)N)NC[C@@H](C(=O)N)N)C(=O)N[C@@H]([C@H](C2=CN=CN2)OC3C(C(C(C(O3)CO)O)O)OC4C(C(C(C(O4)CO)O)OC(=O)N)O)C(=O)N[C@H](C)[C@H]([C@H](C)C(=O)N[C@@H]([C@@H](C)O)C(=O)NCCC5=NC(=CS5)C6=NC(=CS6)C(=O)NCCC[S+](C)C)O [Bleomycin] + COc1cc2c(Oc3ccc(NC(=O)C4(C(=O)Nc5ccc(F)cc5)CC4)cc3F)ccnc2cc1OCCCN1CCOCC1 [Foretinib] (partner 0.25 µM); conditions: main component drawn
Method in brief: as §1

[4] = compound: CC1=C(N=C(N=C1N)[C@H](CC(=O)N)NC[C@@H](C(=O)N)N)C(=O)N[C@@H]([C@H](C2=CN=CN2)OC3C(C(C(C(O3)CO)O)O)OC4C(C(C(C(O4)CO)O)OC(=O)N)O)C(=O)N[C@H](C)[C@H]([C@H](C)C(=O)N[C@@H]([C@@H](C)O)C(=O)NCCC5=NC(=CS5)C6=NC(=CS6)C(=O)NCCC[S+](C)C)O [Bleomycin] + Nc1nc2[nH]cc(CCc3ccc(C(=O)N[C@@H](CCC(=O)O)C(=O)O)cc3)c2c(=O)[nH]1 [Pemetrexed] (partner 0.2 µM); conditions: main component drawn
Method in brief: as §1

## UMC-11
[1]; first compound 0.01 µM
  relative viability: 0.685
[1]; first compound 0.03162 µM
  relative viability: 0.777
[1]; first compound 0.3162 µM
  relative viability: 0.389
[1]; first compound 1 µM
  relative viability: 0.187
[2]; first compound 0.01 µM
  relative viability: 0.703
[2]; first compound 0.03162 µM
  relative viability: 0.573
[2]; first compound 0.3162 µM
  relative viability: 0.241
[2]; first compound 1 µM
  relative viability: 0.146
[3]; first compound 0.01 µM
  relative viability: 0.93
[3]; first compound 0.03162 µM
  relative viability: 1.02
[3]; first compound 0.1 µM
  relative viability: 1.06
[3]; first compound 0.3162 µM
  relative viability: 0.742
[3]; first compound 1 µM
  relative viability: 0.574
[4]; first compound 0.01 µM
  relative viability: 0.74
[4]; first compound 0.03162 µM
  relative viability: 0.756
[4]; first compound 0.1 µM
  relative viability: 0.74
[4]; first compound 0.3162 µM
  relative viability: 0.598
[4]; first compound 1 µM
  relative viability: 0.414
